{
  "source": "paper PMC9780888",
  "about": "“4-Isobutylmethcathinone—A Novel Synthetic Cathinone with High In Vitro Cytotoxicity and Strong Receptor Binding Preference of Enantiomers” (Pharmaceuticals, 2022)",
  "type_in_all_cases": "cell-based, human",
  "key": {"[1]": {"system": "HaCaT", "test": "WST-1 viability assay, HaCaT cells", "conditions": "72 h incubation, WST-1, four replicates", "protocol": "(§1) Based on the novelty of the IMBcat compound, we aimed to evaluate its in vitro cytotoxicity in selected model cell lines as well as to determine the toxicity of the IBMcat enantiomers, since both the chemical structure and chirality of compounds could play a role in their bioactivity (Table 2). The cytotoxic profile of the IBMcat was determined by a WST-1 viability assay after 72-h treatment. For this purpose, cell lines derived from distinct tissues, often affected by NPSs, were chosen, i.e., cells of kidney, hepatic, neural, urinary, and intestinal origin as well as keratinocytes and primary fibroblasts (HEK 293T, Hep G2, HMC-3, SH-SY5Y, 5637, CaCo-2, HaCaT, MRC-5, and BJ, respectively). The cytotoxicity of IBMcat and its enantiomers was concentration- and cell-line dependent, the IC50 values, which were in the micromolar range, are given in Table 2. […] This was followed by embryonic kidney cells HEK 293T (immortalized), in which the toxicity ranged between a concentration of 123 and 192 µM.\n(§2) In this study, the following cell lines were used: HEK 293T, Hep G2, HMC-3, SH-SY5Y, 5637, CaCo-2, HaCaT, MRC-5, BJ, and L929. […] The selected cell lines were chosen so that not only primary noncancerous cells are evaluated but also cells derived from tissues, which are the most often affected by novel synthetic drugs, i.e., kidney, liver, urinary bladder, and nervous tissue. […]\n(§3) The cytotoxicity of IBMCat was evaluated in vitro by using a WST-1 viability assay (Sigma-Aldrich, Saint Louis, MO, USA) based on the transformation of a tetrazolium salt into colored formazan in metabolically active cells. […] After 72 h of additional incubation of the cells, their viability was determined by WST-1. […] The cells were incubated for 2 h, after which absorbance of the raised formazan was measured spectrophotometrically at 450 nm (reference wavelength of 630 nm) using a UV-Vis spectrometer (Bio-Rad Laboratories, Hercules, CA, USA). […] The half-maximal inhibitory concentrations (IC50) were calculated from the measured dose–response curves by AAT Bioquest."}, "[2]": {"system": "CaCo-2", "test": "WST-1 viability assay, CaCo-2 cells", "conditions": "CaCo-2, 72 h incubation, WST-1, four replicates", "protocol": "as §1, §2, §3"}, "[3]": {"system": "SH-SY5Y", "test": "WST-1 viability assay, SH-SY5Y cells", "conditions": "72 h incubation, WST-1, four replicates", "protocol": "as §1, §2, §3"}, "[4]": {"system": "HEK 293T", "test": "WST-1 viability assay, HEK 293T cells", "protocol": "as §1\nIn this study, the following cell lines were used: HEK 293T, Hep G2, HMC-3, SH-SY5Y, 5637, CaCo-2, HaCaT, MRC-5, BJ, and L929. The cells lines were of the following origin: human embryonic immortalized kidney cells (HEK 293T), cells from hepatocellular carcinoma (Hep G2), microglial immortalized cells (HMC-3), cells from neuroblastoma (SH-SY5Y), the urinary bladder carcinoma (5637), colon carcinoma (CaCo-2), immortalized keratinocytes (HaCaT), noncancerous lung fibroblasts (MRC-5), fibroblasts from the foreskin (BJ) and mouse immortalized fibroblasts (L929; frequently used for cytotoxicity evaluation). The selected cell lines were chosen so that not only primary noncancerous cells are evaluated but also cells derived from tissues, which are the most often affected by novel synthetic drugs, i.e., kidney, liver, urinary bladder, and nervous tissue. Except for L929 and MRC-5 which were supplied by Sigma-Aldrich, the rest of the cell lines were purchased from the American Tissue Culture Collection (ATCC). […]\nas §3"}, "[5]": {"conditions": "Homo sapiens, 72 h incubation, WST-1, four replicates, read-out: IC50 ± SD"}},
  "note": "Where a name gives a salt, the structure may show the parent alone. Read-outs that look alike come from different tables or passages of the source.",
  "data": [
    {"smiles": "CNC(C)C(=O)c1ccc(CC(C)C)cc1.Cl", "note": "(stereo not shown) [IBMcat, 4-isobutylmethcathinone hydrochloride]", "values": [
      {"measurement": "IC50", "setting": "[1]; Homo sapiens", "value": "357 ± 40", "unit": "µM"},
      {"measurement": "IC50", "setting": "[2]; Homo sapiens", "value": "389 ± 42", "unit": "µM"},
      {"measurement": "IC50", "setting": "[3]; Homo sapiens", "value": "44 ± 5", "unit": "µM"},
      {"measurement": "IC50", "setting": "[4]; Homo sapiens, 72 h, racemate and enantiomers, read-out: toxicity (IC50) range", "value": "123 to 192", "unit": "µM"},
      {"measurement": "IC50", "setting": "[4]; [5]", "value": "123 ± 6", "unit": "µM"}
    ]},
    {"smiles": "CN[C@H](C)C(=O)c1ccc(CC(C)C)cc1", "note": "[R-IBMCat]", "values": [
      {"measurement": "IC50", "setting": "[1]", "value": "329 ± 43", "unit": "µM"},
      {"measurement": "IC50", "setting": "[2]", "value": "331 ± 19", "unit": "µM"},
      {"measurement": "IC50", "setting": "[3]", "value": "52 ± 4", "unit": "µM"},
      {"measurement": "IC50", "setting": "[4]; 72 h incubation, WST-1, four replicates, read-out: IC50 ± SD", "value": "185 ± 5", "unit": "µM"}
    ]},
    {"smiles": "CN[C@@H](C)C(=O)c1ccc(CC(C)C)cc1", "note": "[S-IBMCat, (S)-4-isobutylmethcathinone hydrochloride]", "values": [
      {"measurement": "IC50", "setting": "[1]; Homo sapiens", "value": "361 ± 22", "unit": "µM"},
      {"measurement": "IC50", "setting": "[2]; Homo sapiens", "value": "390 ± 17", "unit": "µM"},
      {"measurement": "IC50", "setting": "[3]; Homo sapiens", "value": "50 ± 1", "unit": "µM"},
      {"measurement": "IC50", "setting": "[4]; [5]", "value": "192 ± 2", "unit": "µM"}
    ]}
  ]
}
